# Measurements: patent US10975412B2, “Method for designing compounds and compositions useful for targeting high stoichiometric complexes to treat conditions, including treatment of viruses, bacteria, and cancers having acquired drug resistance” (priority 2015, dated 2021)
# Like-named read-outs stand apart in the source and are kept apart here.
# Molecular target: T1, phi29 DNA packaging motor (Bacillus phage phi29, UniProt P11014)
# T1 construct: made in house
# Type: biochemical, bacteriophage phi29
# Details: for inhibition effect in viral assembly: adding 20% of the drugged/mutant component to the wild-type component
# Experimental: (§1) Purified components were subjected to in vitro viral assembly assay as described previously. Briefly, 10 μg of purified procapsids were mixed with 100 ng of pRNA in 5 μl of reaction buffer (10 mM ATP, 6 mM 2-mercaptoethanol, and 3 mM spermidine in TMS buffer) at room temperature for 30 min. Purified DNA-gp3 and gp16 were then added and the reaction mixture was incubated at room temperature for one hour to initiate DNA packaging. Finally, the DNA filled procapsids were incubated with 10 μl of gp8.5-9 extract from E. coli containing plasmid pARgp8.5-9 and 20 μl of gp11-14 extract from E. coli to complete the infectious phage assembly.
# The newly assembled infectious viruses were plated with inoculated B. subtilis bacteria Su^+44 cells onto a half LB plate covered with top agar. After 12 hour incubation at 37° C., the viral assembly efficiency (plaque-forming unit, PFU) was calculated by counting the formed plaque numbers.
# as §1
# T1 sequence (P11014 whole entry): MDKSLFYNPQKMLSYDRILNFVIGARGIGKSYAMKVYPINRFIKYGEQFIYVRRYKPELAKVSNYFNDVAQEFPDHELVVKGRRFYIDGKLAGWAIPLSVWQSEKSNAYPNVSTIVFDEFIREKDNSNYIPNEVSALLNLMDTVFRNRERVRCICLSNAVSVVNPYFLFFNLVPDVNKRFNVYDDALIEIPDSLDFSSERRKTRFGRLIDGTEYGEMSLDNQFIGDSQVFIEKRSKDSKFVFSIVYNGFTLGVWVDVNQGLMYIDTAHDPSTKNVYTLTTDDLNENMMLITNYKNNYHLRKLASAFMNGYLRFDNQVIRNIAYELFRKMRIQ
smiles,measurement,setting,value
Nc1ncnc2c1ncn2[C@@H]1O[C@H](COP(=O)(O)OP(=O)(O)OP(O)(O)=S)[C@@H](O)[C@H]1O [γ-S-ATP],inhibition effect in viral assembly,,almost completely inhibited
same,inhibition effect in viral assembly,listed as gamma-s-ATP,nearly completely inhibited
same,comparison of virus assembly inhibition effect between drugged components,"targets ATP, pRNA, ATPase gp16, DNA with stoichiometry 10000, 6, 6, 1",strongest inhibition effect
